Laboratory results: patent publication US20080253996A1, “Use of Sdf-1 for the Treatment and/or Prevention of Neurological Diseases” (LABORATORIES SERONO SA, priority 2005, published 2008)

System: leukocytes recruited in the peritoneal cavity
Test: In vivo model of peritoneal cell recruitment
Set-up: species or system mouse
Details: 4 μg i.p. in Balb/C mice, 4 hours post injection
Experimental: 8-12 week old, female Balb/C mice (Janvier, France) were injected intra peritoneally (i.p.) with 200 μl NaCl (0.9%, LPS free) or chemokine 4 μg (WT SDF-1α or SDF-1α variant according to SEQ ID NO:4 diluted in 200 μl NaCl (0.9%, LPS free). […] of WT or mutant SDF-1α, mice were sacrificed by CO2 asphyxiation, the peritoneal cavity was washed with 3×5 ml ice cold PBS and the total lavage was pooled for individual mice. Total cells collected were counted by haemocytometer (Neubauer, Germany).

SDF-1α: Human recombinant chemokine SDF-1α (SEQ ID NO: 1), produced in house, expressed in E. Coli cells
leukocyte recruitment in the peritoneal cavity: recruits leukocytes
